A short description of test [1]: Catalepsy wire mesh, rat, max. The format is in vivo, rats. The conditions noted are these: po, read-out: Catalep. ED50 (po). As for the experimental part:
Catalepsy wire mesh, rat, max. (ED50 μmol/kg p.o.)
A vertical wire netting (50 cm×49 cm). The meshes (openings) of the netting are square (1 cm×1 cm). The wire diameter is 2 mm.
The animals are labeled and used in groups of five. The test substance is administered orally (p.o.) at 4 dose levels selected from a fixed dose scale.
The animals are placed in the middle of the vertical wire netting 60, 120, 180, 240, 300 and 360 minutes after administration of the test compound. The animals are considered cataleptic when they remain immobile during a period of 15 seconds. This cataleptic reaction is designated +.
If the rats are "atonic" and passively slide down the wire mesh they are considered not cataleptic. If the animals climb up and down the wire mesh they are nor cataleptic. In both situations the designation - is used.

For the next test, the system named is 5-HT, rat fundus strip. Briefly: 5-HT antagonism, rat fundus strip. As to conditions: read-out: 5HT rat-fundus-strip IC50. The procedure: 5-HT antagonism, rat fundus strip
5-hydroxytryptamine (5-HT).
Rats are killed by a blow on the head and exsanguinated. The stomach fundus is removed and carefully cleaned with Krebs solution at 30° C. The fundus is then stretched over a rounded end of a plastic rod about the thickness of a pencil, whereby the longitudinal direction of the muscle fibers is visible. The fundus is halved by carefully cutting in the central line and in the direction of these fibres. Along this incision two strips with a length of 15-25 mm and with width 1.5-2.5 mm are cut, one from each half of the fundus. The mucosa is then carefully removed. A thread is attached to each end of a strip. One thread is fixed to a pin in the bottom of the organ bath and the other thread is fixed to an isotonic transducer. The strip is kept under a tone of 1.5 to 2.0 g. […] Concentration response curves to 5-HT are obtained by adding 5-HT to the bath in increasing concentrations (0.1 ml of 10^-9 M resulting in 1.0×10^-11 M in the bath, 0.2 ml of 10^-9 M resulting in 3.0×10^-11 M, 0.1 ml of 10^-8 M resulting in about 1×10^-10 M, 0.2 ml of 10^-8 M resulting in about 3×10^-10 M--0.2 ml of 10^-4 resulting in about 3×10^-6 M in the bath). Each concentration of 5-HT is allowed to exert its maximal effect (1-10 min) before the next is added. When the maximal response is reached the tissue is carefully washed. The test substance is added to the bath for 10 min. before examining its effect on a new cumulative 5-HT concentration response curve. From the control concentration effect curve the Km for 5-HT is calculated.
The results are recorded as mean percentage inhibition.
Substrate concentration for 5-HT: 1.0×10^-9 M to 1.0×10^-8 M.
Michaelis-Menten constant for 5-HT is estimated each time.

For a further test, the system named is methylphenidate. Briefly: Methylphenidate antagonism, mice i.p. The format is in vivo. The conditions noted are these: Mus musculus, ip. As for the experimental part:
Methylphenidate antagonism (ED50 μmol/kg i.p.)
Perspex observation cages without bottom and lid, consisting of 5 sections each measuring 12×25×30 cm.
Two hours after injection of test substance, methylphenidate, 60 mg/kg, is injected s.c. After administration of methylphenidate the mice are placed in the observation cages, 2 in each cage, where they remain for exactly 1 hour. The cages are placed on corrugated paper, the corrugations facing upwards. It is examined whether the mice have been biting the corrugated paper or not.
The result is stated in fractions: 0/3, 1/3, 2/3 and 3/3 where 0, 1, 2 and 3 are the number of pairs which have not been biting on receipt of the dose in question.

The mark [2] stands for this setting: read-out: MePh Antag. ED50 (ip).
The mark [3] stands for this setting: Table 1, mice, i.p., 2 h before methylphenidate 60 mg/kg s.c., read-out: MePh Antag. ED50 (ip).
Where [4] appears, read: Table 1, rat, p.o., max. effect within 6 h.
Setting [5] is: 10 min, Table 1, rat fundus strip in vitro, 10 min pre-exposure.
[6] abbreviates: Table 2, hydroxyindane intermediates, mice, i.p., read-out: MePh Antag. ED50.

Molecules are shown by their SMILES. Counter-ions that a name gives are not always drawn. Like-named read-outs stand apart in the source and are kept apart here. Where only a bound is given, the exact number is not on record here.

This note sets out measurements from patent US4525360A, “Anti-psychotic phenylindene derivatives and acid addition salts thereof” (Kefalas A/S, priority 1982, dated 1985).

What is called ED50 is the dose that gives a 50% effect, or the effect in half of the subjects. What is called IC50 is the concentration that gives 50% inhibition.

Turning to `CN(C)CCCN1c2ccccc2Sc2ccc(Cl)cc21` [Chlorpromazine, reference compound], the ED50 in test [1] (Rattus norvegicus, 6 h) came out at 70 µmol/kg. The IC50 with 5-HT, rat fundus strip (Rattus norvegicus, 10 min) is above 5000 nM.
As to `OCCN1CCN(CCCN2c3ccccc3Sc3ccc(C(F)(F)F)cc32)CC1` [Fluphenazine, reference compound], the ED50 is 0.07 µmol/kg with methylphenidate (setting [2]) and 0.55 µmol/kg in test [1] (Rattus norvegicus, 6 h).
The corresponding values for `O=C(CCCN1CCC(O)(c2ccc(Cl)cc2)CC1)c1ccc(F)cc1` [Haloperidol, reference compound] are 0.11 µmol/kg and 1 µmol/kg.
Take `CN1CCC(C2C=C(c3ccc(F)cc3)c3ccc(F)cc32)CC1` (stereo not drawn) [Lu 19-004, 6-Fluoro-3-(4'-fluorophenyl)-1-(1-methyl-4-piperidyl)-2-indene]: the ED50 was determined as 12.2 µmol/kg in the test with methylphenidate (setting [3]) and 64.2 µmol/kg in test [1] (setting [4]). Moreover, the IC50 in the test on 5-HT, rat fundus strip (setting [5]) amounted to 1100 nM.
Regarding `Cc1ccc2c(c1)C(O)(C1=CCN(C)CC1)CC2c1ccc(F)cc1` (stereo not drawn) [Lu 19-131, 3-(4'-Fluorophenyl)-1-hydroxy-6-methyl-1-(1-methyl-1,2,3,6-tetrahydropyrid-4-yl)indane], in the test on methylphenidate (setting [6]), the ED50 is 14.8 µmol/kg.
On the same count and under the same terms, to `OC1(C2CCNCC2)CC(c2ccc(F)cc2)c2ccc(F)cc21` (stereo not drawn) [Lu 19-139, 6-Fluoro-3-(4'-fluorophenyl)-1-hydroxy-1-(4-piperidyl)indane] belongs 15.6 µmol/kg.
As for `CN1CCC(=C2C=C(c3ccc(F)cc3)c3ccc(F)cc32)CC1` [Lu 19-151, 6-Fluoro-3-(4'-fluorophenyl)-1-(1-methyl-4-piperidylidenyl)-2-indene, hydrochloride], the results for the ED50 (with methylphenidate (setting [3]); in test [1] (setting [4])) were 32.5 µmol/kg and 32.9 µmol/kg, respectively. The IC50 with 5-HT, rat fundus strip (setting [5]) was 7500 nM.
`Cc1ccc2c(c1)C(O)(C1=CCN(CCO)CC1)CC2c1ccc(F)cc1` (stereo not drawn) [Lu 19-154, 3-(4'-Fluorophenyl)-1-hydroxy-1-(1-hydroxyethyl-1,2,3,6-tetrahydropyrid-4-yl)-6-methylindane]: in the test on methylphenidate (setting [6]), the ED50 stood at 6.2 µmol/kg. Moreover, the IC50 in the test on 5-HT, rat fundus strip (Table 2, hydroxyindane intermediates, rat fundus strip in vitro) was 5.4 nM.
In the case of `OCCN1CC=C(C2=CC(c3ccc(F)cc3)c3ccc(F)cc32)CC1` (stereo not drawn) [Lu 19-157, 6-Fluoro-3-(4'-fluorophenyl)-1-(1-hydroxyethyl-1,2,3,6-tetrahydropyrid-4-yl)-1-indene, hydrobromide], the ED50 in the test with methylphenidate (setting [3]) came out at 15.8 µmol/kg; in test [1] (setting [4]) it was 55.3 µmol/kg. For the same molecule, the IC50 in the test on 5-HT, rat fundus strip (setting [5]) was 330 nM.
`COc1ccc2c(c1)C(C1=CCN(CCO)CC1)=CC2c1ccc(F)cc1` (stereo not drawn) [Lu 20-021, 3-(4'-Fluorophenyl)-1-(1-hydroxyethyl-1,2,3,6-tetrahydropyrid-4-yl)-6-methoxy-1-indene, hydrobromide]: the ED50 in the test with methylphenidate (setting [3]) worked out at 11.6 µmol/kg. Also, the IC50 with 5-HT, rat fundus strip (setting [5]) was 500 nM.
Turning to `CN1CC=C(C2=CC(c3ccc(F)cc3)c3ccc(F)cc32)CC1` (stereo not drawn) [Lu 20-025, 6-Fluoro-3-(4'-fluorophenyl)-1-(1-methyl-1,2,3,6-tetrahydropyrid-4-yl)-1-indene, hydrobromide], the values for the ED50 (in the test on methylphenidate (setting [3]); in test [1] (setting [4])) were 7.6 µmol/kg and 5.3 µmol/kg, respectively. Also, the IC50 in the test on 5-HT, rat fundus strip (setting [5]) stood at 240 nM.
The like results for `CN1CCC(C2=CC(c3ccc(F)cc3)c3ccc(F)cc32)CC1` (stereo not drawn) [Lu 20-028, 6-Fluoro-3-(4'-fluorophenyl)-1-(1-methyl-4-piperidyl)-1-indene, hydrobromide] were, in that order, 0.78 µmol/kg, 6.2 µmol/kg and 200 nM.
The corresponding values for `COc1ccc2c(c1)C(C1CCN(CCO)CC1)=CC2c1ccc(F)cc1` (stereo not drawn) [Lu 20-033, 3-(4'-Fluorophenyl)-1-(1-hydroxyethyl-4-piperidyl)-6-methoxy-1-indene, hydrobromide] are 18.3 µmol/kg, 6.2 µmol/kg and 160 nM.
The like results for `Cc1ccc2c(c1)C(C1=CCN(CCO)CC1)C=C2c1ccc(F)cc1` (stereo not drawn) [Lu 20-038, 3-(4'-Fluorophenyl)-1-(1-hydroxyethyl-1,2,3,6-tetrahydropyrid-4-yl)-6-methyl-2-indene, hydrobromide] were, in that order, 0.89 µmol/kg, 3.8 µmol/kg and 28 nM.
Consider `Cc1ccc2c(c1)C(C1CCN(CCO)CC1)C=C2c1ccc(F)cc1` (stereo not drawn) [Lu 20-039, 3-(4'-Fluorophenyl)-1-(1-hydroxyethyl-4-piperidyl)-6-methyl-2-indene, hydrobromide], for which the ED50 in the test on methylphenidate (setting [3]) was 93 µmol/kg; in test [1] (setting [4]), above 93 µmol/kg. The IC50 in the test with 5-HT, rat fundus strip (setting [5]) stood at 1900 nM.
The corresponding values for `Cc1ccc2c(c1)C(C1=CCN(C)CC1)C=C2c1ccc(F)cc1` (stereo not drawn) [Lu 20-040, 3-(4'-Fluorophenyl)-6-methyl-1-(1-methyl-1,2,3,6-tetrahydropyrid-4-yl)-2-indene, hydrobromide] are 0.7 µmol/kg, 5.5 µmol/kg and 62 nM.
As for `Cc1ccc2c(c1)C(C1=CCN(C)CC1)=CC2c1ccc(F)cc1` (stereo not drawn) [Lu 20-041, 3-(4'-Fluorophenyl)-6-methyl-1-(1-methyl-1,2,3,6-tetrahydropyrid-4-yl)-1-indene, hydrobromide], the ED50 was found to be 0.14 µmol/kg in the test on methylphenidate (setting [3]) and 1.6 µmol/kg in test [1] (setting [4]). Moreover, the IC50 in the test on 5-HT, rat fundus strip (setting [5]) turned out to be 85 nM.
As for `Cc1ccc2c(c1)C(=C1CCN(CCO)CC1)C=C2c1ccc(F)cc1` [Lu 20-044, 3-(4'-Fluorophenyl)-1-(1-hydroxyethyl-4-piperidylidenyl)-6-methyl-2-indene,hydrobromide], the ED50 with methylphenidate (setting [3]) was 5.1 µmol/kg. Besides, the IC50 in the test on 5-HT, rat fundus strip (setting [5]) turned out to be 280 nM.
The corresponding values for `O=C1NCCN1CCN1CCC(C2=CC(c3ccc(F)cc3)c3ccccc32)CC1` (stereo not drawn) [Lu 20-078, 3-(4'-Fluorophenyl)-1-(1-(2-imidazolidinon-1-ylethyl)-4-piperidyl)-1-indene, oxalate] are 16.5 µmol/kg and 120 nM.
As to `CN1CC=C(C2=CC(c3ccc(F)cc3)c3ccc(Cl)cc32)CC1` (stereo not drawn) [Lu 20-079, 6-Chloro-3-(4'-fluorophenyl)-1-(1-methyl-1,2,3,6-tetrahydropyrid-4-yl)-1-indene, hydrobromide], in the test with methylphenidate (setting [3]), the ED50 was determined as 3 µmol/kg.
On to `O=C1NCCN1CCN1CCC(C2C=C(c3ccc(F)cc3)c3ccccc32)CC1` (stereo not drawn) [Lu 20-082, 3-(4'-Fluorophenyl)-1-(1-(2-imidazolidinon-1-ylethyl)-4-piperidyl)-2-indene], for which the ED50 in the test with methylphenidate (setting [3]) worked out at 70.9 µmol/kg. The IC50 in the test on 5-HT, rat fundus strip (setting [5]) was determined as 1500 nM.
Consider `O=C1NCCN1CCN1CCC(C2=CC(c3ccc(F)cc3)c3ccc(F)cc32)CC1` (stereo not drawn) [Lu 20-087, 6-Fluoro-3-(4'-fluorophenyl)-1-(1-(2-imidazolidinon-1-ylethyl)-4-piperidyl)-1-indene, oxalate], for which the ED50 in the test on methylphenidate (setting [3]) is 10.8 µmol/kg.
On to `CC(C)c1ccc2c(c1)C(C1=CCN(C)CC1)=CC2c1ccc(F)cc1` (stereo not drawn) [Lu 20-099, 3-(4'-Fluorophenyl)-1-(1-methyl-1,2,3,6-tetrahydropyrid-4-yl)-6-(2-propyl)-1-indene, hydrobromide], for which the ED50 with methylphenidate (setting [3]) was 5.6 µmol/kg. Moreover, in the test with 5-HT, rat fundus strip (setting [5]), the IC50 stood at 5000 nM.
`CC(C)c1ccc2c(c1)C(C1CCN(CCO)CC1)=CC2c1ccc(F)cc1` (stereo not drawn) [Lu 20-109, 3-(4'-Fluorophenyl)-1-(1-hydroxyethyl-4-piperidyl)-6-(2-propyl)-1-indene, hydrochloride]: the ED50 with methylphenidate (setting [3]) turned out to be 1.1 µmol/kg.
The same measure, in the same setting: to `Cc1ccc2c(c1)C(C1CCN(CCN3CCOC3=O)CC1)=CC2c1ccc(F)cc1` (stereo not drawn) [Lu 21-002, 3-(4'-Fluorophenyl)-6-methyl-1-(1-(2-oxazolidinon-3-ylethyl)-4-piperidyl)-1-indene, trifluoroacetate] belongs 1.7 µmol/kg.
